Assay results reported in US8450454B2, “Compositions for inhibiting ABAD/ABeta protein interaction” (The Trustees of Columbia University in the City of New York, priority 2004, dated 2013).
Ends that are not written are not given here.

T1: ABAD (Homo sapiens, UniProt Q99714)
T1 construct: made in house
T1 sequence (Q99714 1-261): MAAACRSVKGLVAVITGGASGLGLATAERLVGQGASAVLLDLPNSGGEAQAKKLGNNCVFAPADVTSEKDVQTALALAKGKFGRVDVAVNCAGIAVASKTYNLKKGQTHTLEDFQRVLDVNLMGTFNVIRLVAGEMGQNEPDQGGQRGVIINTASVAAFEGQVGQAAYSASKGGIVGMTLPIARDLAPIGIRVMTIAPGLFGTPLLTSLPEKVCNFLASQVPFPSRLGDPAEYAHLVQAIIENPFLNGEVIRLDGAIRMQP

B1: S98A, K99A, Y101A: site-directed ABAD mutant (protein, UniProt Q99714 2-261, looked up, variant S98A K99A Y101A)
3-hydroxyacyl-CoA …: AAACRSVKGLVAVITGGASGLGLATAERLVGQGASAVLLDLPNSGGEAQAKKLGNNCVFAPADVTSEKDVQTALALAKGKFGRVDVAVNCAGIAVAAATANLKKGQTHTLEDFQRVLDVNLMGTFNVIRLVAGEMGQNEPDQGGQRGVIINTASVAAFEGQVGQAAYSASKGGIVGMTLPIARDLAPIGIRVMTIAPGLFGTPLLTSLPEKVCNFLASQVPFPSRLGDPAEYAHLVQAIIENPFLNGEVIRLDGAIRMQP
B2: GST-ABAD(1-186): GST-ABAD truncation mutant, residues 1-186 (protein)
chain: MAAACRSVKGLVAVITGGASGLGLATAERLVGQGASAVLLDLPNSGGEAQAKKLGNNCVFAPADVTSEKDVQTALALAKGKFGRVDVAVNCAGIAVASKTYNLKKGQTHTLEDFQRVLDVNLMGTFNVIRLVAGEMGQNEPDQGGQRGVIINTASVAAFEGQVGQAAYSASKGGIVGMTLPIARDL
modifications: left off: a dimerising Fc or GST
B3: GST-ABAD(159-261): GST-ABAD truncation mutant, residues 159-261 (protein)
chain: FEGQVGQAAYSASKGGIVGMTLPIARDLAPIGIRVMTIAPGLFGTPLLTSLPEKVCNFLASQVPFPSRLGDPAEYAHLVQAIIENPFLNGEVIRLDGAIRMQP
modifications: left off: a dimerising Fc or GST
B4: GST-ABAD(1-158): GST-ABAD truncation mutant, residues 1-158 (protein)
chain: MAAACRSVKGLVAVITGGASGLGLATAERLVGQGASAVLLDLPNSGGEAQAKKLGNNCVFAPADVTSEKDVQTALALAKGKFGRVDVAVNCAGIAVASKTYNLKKGQTHTLEDFQRVLDVNLMGTFNVIRLVAGEMGQNEPDQGGQRGVIINTASVAA
modifications: left off: a dimerising Fc or GST

Experiments:
[1] = system: cultured neurons; test: LDH release from cultured neurons; format: cell-based, mouse; conditions: neurons from Tg mAPP/ABAD mice (spontaneous) and Tg ABAD mice exposed to Aβ, peptide pretreatment
[2] = system: cultured neurons; test: DNA fragmentation (Cell Death Detection ELISA) in cultured neurons; format: cell-based, mouse; conditions: neurons from Tg mAPP/ABAD mice (spontaneous) and Tg ABAD mice exposed to Aβ, peptide pretreatment
[3] = target: T1, ABAD; test: Binding of fluorescein-labeled ABAD to amyloid-related peptide immobilized on microtiter wells
[4] = target: T2, ABAD-Aβ (1-40) interaction (Homo sapiens, UniProt P05067); test: Surface plasmon resonance (Biacore): inhibition of Aβ (1-40) binding to immobilized ABAD; conditions: one-site competitive inhibition fit
T2 construct: made in house
T2 sequence (P05067 672-711): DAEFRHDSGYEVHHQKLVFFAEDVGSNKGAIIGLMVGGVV
Protocol: (§1) 3) and ABAD reverse peptide (ABAD-RP, residues 120-92) were synthesized by Biotechnology Lab at Yale University. For binding studies, ABAD was immobilized on CM5 sensor chip (29). […] The reaction/binding buffer contained 50 mM Hepes at pH 7.4, 0.15 M NaCl, 1 mM EDTA, and 0.005% Tween 20. Data analysis was performed using Biacore X biosensor system (Uppsala, Sweden) and BIA evaluation 3.0 software (Biacore, Sweden). Response data are plotted in Resonance Units versus ABAD peptide concentrations (nM), and were fit to a one-site model for competitive inhibition to obtain the Ki.

[5] = target: T3, ABAD-Aβ (1-42) interaction (Homo sapiens, UniProt P05067); test: Surface plasmon resonance (Biacore): inhibition of Aβ (1-42) binding to immobilized ABAD; conditions: one-site competitive inhibition fit
T3 construct: made in house
T3 sequence (P05067 672-713): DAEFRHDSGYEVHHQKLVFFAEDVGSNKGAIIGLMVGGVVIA
Protocol: as §1

[6] = target: Aβ (1-40) (Homo sapiens, UniProt P05067); test: Surface plasmon resonance: Aβ (1-40) binding to immobilized wild-type or mutant ABAD; conditions: ABAD immobilized on sensor chip, Aβ (1-40) mobile phase
Chain of Aβ (1-40) (P05067 672-711): as the sequence (P05067 672-711) above
Protocol: as §1, with “[…]; SEQ ID NO. 3)” for “3)”

[7] = target: Aβ (1-42) (Homo sapiens, UniProt P05067); test: Binding of 125I-labeled GST-ABAD or ABAD mutants to immobilized Aβ (1-42); design: key: +: Specific binding comparable to that observed with wild type ABAD; −: No observed specific binding; conditions: 125I-labeled GST-ABAD or ABAD to immobilized Aβ (1-42)
Chain of Aβ (1-42) (P05067 672-713): as the sequence (P05067 672-713) above

Molecule	binding to ABAD (in words) [3]	Aβ Binding [7]	further results
CC[C@H](C)[C@H](NC(=O)CNC(=O)[C@H](C)N)C(=O)N[C@@H](C)C(=O)N[C@H](C(=O)N[C@@H](C)C(=O)N[C@@H](CO)C(=O)N[C@@H](CCCCN)C(=O)N[C@H](C(=O)N[C@@H](Cc1ccc(O)cc1)C(=O)N[C@@H](CC(N)=O)C(=O)N[C@@H](CC(C)C)C(=O)N[C@@H](CCCCN)C(=O)N[C@@H](CCCCN)C(=O)NCC(=O)N[C@@H](CCC(N)=O)C(=O)N[C@H](C(=O)N[C@@H](Cc1c[nH]cn1)C(=O)N[C@H](C(=O)N[C@@H](CC(C)C)C(=O)N[C@@H](CCC(=O)O)C(=O)N[C@@H](CC(=O)O)C(=O)N[C@@H](Cc1ccccc1)C(=O)N[C@@H](CCC(N)=O)C(=O)N[C@@H](CCCNC(=N)N)C(=O)N[C@H](C(=O)N[C@@H](CC(C)C)C(=O)N[C@@H](CC(=O)O)C(=O)N[C@H](C(=O)O)C(C)C)C(C)C)[C@@H](C)O)[C@@H](C)O)[C@@H](C)O)C(C)C [ABAD-DP]			LDH release (cytotoxicity) [1]: attenuated cytotoxicity; DNA fragmentation (cytotoxicity) [2]: attenuated cytotoxicity
CC[C@H](C)[C@H](NC(=O)[C@H](C)NC(=O)CNC(=O)[C@H](Cc1ccccc1)NC(=O)[C@H](CC(N)=O)NC(=O)[C@H](CC(N)=O)NC(=O)[C@H](CO)NC(=O)[C@H](CO)NC(=O)[C@H](Cc1c[nH]cn1)NC(=O)[C@@H](NC(=O)[C@H](CC(C)C)NC(=O)[C@H](Cc1ccccc1)NC(=O)[C@H](CC(N)=O)NC(=O)[C@H](C)NC(=O)[C@H](CC(C)C)NC(=O)[C@H](CCCNC(=N)N)NC(=O)[C@H](CCC(N)=O)NC(=O)[C@@H](NC(=O)[C@H](C)NC(=O)[C@@H]1CSSC[C@H](NC(=O)[C@@H](N)CCCCN)C(=O)N[C@@H](CC(N)=O)C(=O)N[C@@H]([C@@H](C)O)C(=O)N[C@@H](C)C(=O)N[C@@H]([C@@H](C)O)C(=O)N1)[C@@H](C)O)C(C)C)C(=O)N[C@@H](CC(C)C)C(=O)N[C@@H](CO)C(=O)N[C@@H](CO)C(=O)N[C@H](C(=O)N[C@@H](CC(N)=O)C(=O)N[C@H](C(=O)NCC(=O)N[C@@H](CO)C(=O)N[C@@H](CC(N)=O)C(=O)N[C@H](C(=O)N[C@@H](Cc1ccc(O)cc1)C(N)=O)[C@@H](C)O)C(C)C)[C@@H](C)O [Amylin]	did not bind		
CC(C)C[C@H](NC(=O)[C@H](CCCCN)NC(=O)[C@H](CCC(N)=O)NC(=O)[C@H](Cc1c[nH]cn1)NC(=O)[C@H](Cc1c[nH]cn1)NC(=O)[C@@H](NC(=O)[C@H](CCC(=O)O)NC(=O)[C@H](Cc1ccc(O)cc1)NC(=O)CNC(=O)[C@H](CO)NC(=O)[C@H](CC(=O)O)NC(=O)[C@H](Cc1c[nH]cn1)NC(=O)[C@H](CCCNC(=N)N)NC(=O)[C@H](Cc1ccccc1)NC(=O)[C@H](CCC(=O)O)NC(=O)[C@H](C)NC(=O)[C@@H](N)CC(=O)O)C(C)C)C(=O)N[C@H](C(=O)N[C@@H](Cc1ccccc1)C(=O)N[C@@H](Cc1ccccc1)C(=O)O)C(C)C [Aβ 1-20]	dose-dependent binding		
GSNKGAIIGLM [Aβ 25-35]	no specific binding		Kd ([3]; peptide immobilized on microtiter wells, fluorescein-labeled ABAD added): > 1000 nM
VDLVRQFDELTHTQGKKLNYTKSAVAIGA [ABAD-RP, reference compound]			inhibitory constant, binding of Aβ (1-40) to immobilized intact ABAD [4]: completely inactive; inhibitory constant, binding of Aβ (1-42) to immobilized intact ABAD [5]: completely inactive; DNA fragmentation (cytotoxicity) [2]: not
B1		−	interaction with Aβ in surface plasmon resonance [6]: no specific interaction
B2		+	
B3		−	
B4		+	
